Usually IC50 stands for the concentration needed to halve the response being measured.

Where two headings read alike, the source gives them in different places.

One test concerns the target KRas G12C (Homo sapiens, UniProt P01116, C118S/C51S/C80L/G12C). Briefly: KRas G12C Modification Assay (LCMS detection of covalent adduct). Format: binding. Particulars: normalized percent of control, tested at 5 μM concentration for 3 hours. The method in brief:
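Covalent modification was read by reverse-phase LC/MS of intact protein after compound exposure, each reaction stopped at its time point with 25 mM acetic acid. Unmodified-protein signal, taken as percent of total, was normalised to untreated protein and reported as POC.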

Test [1] concerns NCI-H358 cells (express KRas G12C), Phospho-ERK. The test can be described thus: Cellular inhibition of KRas G12C: Phospho-ERK in NCI-H358 cells. Type of test: cell-based. Particulars: pERK(Thr202/Tyr204) normalized with GAPDH, NCI-H358 cells, 3 hours, read-out: IC50. The essentials: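 IC50 derived by 4-parameter fit of GAPDH-normalized pERK(Thr202/Tyr204) signal, as percent of DMSO control. Signal came from in-cell immunodetection with infrared secondaries after 3 h compound exposure of KRas G12C NCI-H358 cells at 0.5% DMSO.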

On to `C=CC(=O)N1CCN(c2nc(OC[C@@H]3CCCN3CCOC)nc3c2CCN(c2cccc4ccccc24)C3)CC1CC#N` (stereo partly drawn) [Example 266, 2-(1-acryloyl-4-(2-(((S)-1-(2-methoxyethyl)pyrrolidin-2-yl)methoxy)-7-(naphthalen-1-yl)-5,6,7,8-tetrahydropyrido[3,4-d]pyrimidin-4-yl)piperazin-2-yl)acetonitrile], for which the POC result on KRas G12C is listed as “C (“C”>50% POC)”. In addition, the IC50 in test [1] (Homo sapiens, NCI-H358, 3 h) was in the range of 0.0001 to 1 µM.
`C=CC(=O)N1CCN(c2nc(OC[C@H]3CCCN3C)nc3c2CCN(c2cccc4ccccc24)C3)C[C@@H]1CC#N` [Example 267, 2-((S)-1-acryloyl-4-(2-(((R)-1-methylpyrrolidin-2-yl)methoxy)-7-(naphthalen-1-yl)-5,6,7,8-tetrahydropyrido[3,4-d]pyrimidin-4-yl)piperazin-2-yl)acetonitrile]: the POC entry at KRas G12C is given as “C (“C”>50% POC)”. The IC50 in test [1] (Homo sapiens) lay within 0.0001 to 1 µM.
Regarding `C=CC(=O)N1CCN(c2nc(OC[C@@H]3C[C@@H](OC)CN3C)nc3c2CCN(c2cccc4ccccc24)C3)CC1CC#N` (stereo partly drawn) [Example 268, 2-(1-acryloyl-4-(2-(((2S,4R)-4-methoxy-1-methylpyrrolidin-2-yl)methoxy)-7-(naphthalen-1-yl)-5,6,7,8-tetrahydropyrido[3,4-d]pyrimidin-4-yl)piperazin-2-yl)acetonitrile], the POC result at KRas G12C is listed as “C (“C”>50% POC)”. In addition, the IC50 in test [1] (Homo sapiens, NCI-H358, 3 h) lay in the range of 0.0001 to 1 µM.
For `C=CC(=O)N1CCN(c2nc(OCC(C)(C)N(C)C)nc3c2CCN(c2cccc4ccccc24)C3)CC1CC#N` (stereo not shown) [Example 269, 2-(1-acryloyl-4-(2-(2-(dimethylamino)-2-methylpropoxy)-7-(naphthalen-1-yl)-5,6,7,8-tetrahydropyrido[3,4-d]pyrimidin-4-yl)piperazin-2-yl)acetonitrile] the same measures were “C (“C”>50% POC)” and 0.0001 to 1 µM.
Turning to `C=CC(=O)N1CCN(c2nc(OC[C@H]3CN(C)CCO3)nc3c2CCN(c2cccc4ccccc24)C3)CC1CC#N` (stereo partly drawn) [Example 270, 2-(1-acryloyl-4-(2-(((R)-4-methylmorpholin-2-yl)methoxy)-7-(naphthalen 1-yl)-5,6,7,8-tetrahydropyrido[3,4-d]pyrimidin-4-yl)piperazin-2-yl)acetonitrile], the POC result on KRas G12C is listed as “C (“C”>50% POC)”. Also, in test [1] (Homo sapiens, NCI-H358, 3 h), the half-maximal inhibitory concentration (IC50) is 0.0001 to 1 µM.
Take `C=CC(=O)N1CCN(c2nc(OC[C@@H]3CN(C)CCO3)nc3c2CCN(c2cccc4ccccc24)C3)CC1CC#N` (stereo partly drawn) [Example 271, 2-(1-acryloyl-4-(2-(((S)-4-methylmorpholin-2-yl)methoxy)-7-(naphthalen-1-yl)-5,6,7,8-tetrahydropyrido[3,4-d]pyrimidin-4-yl)piperazin-2-yl)acetonitrile]: the POC result at KRas G12C is recorded as “C (“C”>50% POC)”. The IC50 in test [1] (Homo sapiens, NCI-H358, 3 h) fell in the range of 0.0001 to 1 µM.
For the molecule `C=CC(=O)N1CCN(c2nc(OC[C@@H]3COCCN3C)nc3c2CCN(c2cccc4ccccc24)C3)CC1CC#N` (stereo partly drawn) [Example 272, 2-(1-acryloyl-4-(2-(((S)-4-methylmorpholin-3-yl)methoxy)-7-(naphthalen-1-yl)-5,6,7,8-tetrahydropyrido[3,4-d]pyrimidin-4-yl)piperazin-2-yl)acetonitrile], the POC entry at KRas G12C was “C (“C”>50% POC)”. In addition, the IC50 in test [1] (Homo sapiens, NCI-H358, 3 h) is 0.0001 to 1 µM.
Consider `C=CC(=O)N1CCN(c2nc(OC[C@H]3COCCN3C)nc3c2CCN(c2cccc4ccccc24)C3)CC1CC#N` (stereo partly drawn) [Example 273, 2-(1-acryloyl-4-(2-(((R)-4-methylmorpholin-3-yl)methoxy)-7-(naphthalen-1-yl)-5,6,7,8-tetrahydropyrido[3,4-d]pyrimidin-4-yl)piperazin-2-yl)acetonitrile], for which the POC result at KRas G12C is recorded as “C (“C”>50% POC)”. The 50% inhibitory concentration (IC50) in test [1] (Homo sapiens, NCI-H358, 3 h) is above 1 µM.
For the molecule `C=CC(=O)N1CCN(c2nc(OC[C@H]3CCCN3C)nc3c2CCN(c2cccc(F)c2C(F)(F)F)C3)C[C@@H]1CC#N` [Example 274, 2-((S)-1-acryloyl-4-(7-(3-fluoro-2-(trifluoromethyl)phenyl)-2-(((R)-1-methylpyrrolidin-2-yl)methoxy)-5,6,7,8-tetrahydropyrido[3,4-d]pyrimidin-4-yl)piperazin-2-yl)acetonitrile], the POC result at KRas G12C is given as “C (“C”>50% POC)”. Further, the IC50 in test [1] (Homo sapiens, NCI-H358, 3 h) was in the range of 0.0001 to 1 µM.
With `C=CC(=O)N1CCN(c2nc(OC[C@@H]3CCCN3C)nc3c2CCN(c2c(F)cccc2C(F)(F)F)C3)CC1CC#N` (stereo partly drawn) [Example 275, 2-(1-acryloyl-4-(7-(2-fluoro-6-(trifluoromethyl)phenyl)-2-(((S)-1-methylpyrrolidin-2-yl)methoxy)-5,6,7,8-tetrahydropyrido[3,4-d]pyrimidin-4-yl)piperazin-2-yl)acetonitrile], the POC entry at KRas G12C is on record as “C (“C”>50% POC)”. In test [1] (Homo sapiens, NCI-H358, 3 h), the 50% inhibitory concentration (IC50) lay in the range of 0.0001 to 1 µM.
Taken in the same sequence, the figures for `C=CC(=O)N1CCN(c2nc(OC[C@@H]3CCCN3C)nc3c2CCN(c2ccc(F)cc2C(F)(F)F)C3)CC1CC#N` (stereo partly drawn) [Example 276, 2-(1-acryloyl-4-(7-(4-fluoro-2-(trifluoromethyl)phenyl)-2-(((S)-1-methylpyrrolidin-2-yl)methoxy)-5,6,7,8-tetrahydropyrido[3,4-d]pyrimidin-4-yl)piperazin-2-yl)acetonitrile] were “C (“C”>50% POC)” and 0.0001 to 1 µM.
Taken in the same sequence, the figures for `C=CC(=O)N1CCN(c2nc(OC[C@@H]3CCCN3C)nc3c2CCN(c2cccc(Cl)c2C(F)(F)F)C3)CC1CC#N` (stereo partly drawn) [Example 277, 2-(1-acryloyl-4-(7-(3-chloro-2-(trifluoromethyl)phenyl)-2-(((S)-1-methylpyrrolidin-2-yl)methoxy)-5,6,7,8-tetrahydropyrido[3,4-d]pyrimidin-4-yl)piperazin-2-yl)acetonitrile] were “C (“C”>50% POC)” and 0.0001 to 1 µM.
Consider `C=CC(=O)N1CCN(c2nc(OC[C@@H]3CCCN3C)nc3c2CCN(c2ccnc4ccccc24)C3)CC1CC#N` (stereo partly drawn) [Example 278, 2-(1-acryloyl-4-(2-(((S)-1-methylpyrrolidin-2-yl)methoxy)-7-(quinolin-4-yl)-5,6,7,8-tetrahydropyrido[3,4-d]pyrimidin-4-yl)piperazin-2-yl)acetonitrile], for which, at KRas G12C (5 µM), the POC result was “C (“C”>50% POC)”. For the same molecule, in test [1], the IC50 was in the range of 0.0001 to 1 µM.
As for `C=CC(=O)N1CCN(c2nc(OCCN(C)C)nc3c2CCN(c2ccccc2C(F)(F)F)C3)CC1CC#N` (stereo not shown) [Example 279, 2-(1-acryloyl-4-(2-(2-(dimethylamino)ethoxy)-7-(2-(trifluoromethyl)phenyl)-5,6,7,8-tetrahydropyrido[3,4-d]pyrimidin-4-yl)piperazin-2-yl)acetonitrile], on KRas G12C, the POC result was “C (“C”>50% POC)”. The IC50 in test [1] (Homo sapiens, NCI-H358, 3 h) is 0.0001 to 1 µM.
For `C=CC(=O)N1CCN(c2nc(OCCCN3C[C@H]4C[C@@H]3CO4)nc3c2CCN(c2ccccc2C(F)(F)F)C3)CC1CC#N` (stereo partly drawn) [Example 280, 2-(4-(2-(3-((1R,4R)-2-oxa-5-azabicyclo[2.2.1]heptan-5-yl)propoxy)-7-(2-(trifluoromethyl)phenyl)-5,6,7,8-tetrahydropyrido[3,4-d]pyrimidin-4-yl)-1-acryloylpiperazin-2-yl)acetonitrile], the POC entry at KRas G12C is recorded as “C (“C”>50% POC)”. In addition, the IC50 in test [1] (Homo sapiens) was in the range of 0.0001 to 1 µM.
As to `C=CC(=O)N1CCN(c2nc(OC[C@@H]3CCN(C)C3)nc3c2CCN(c2ccccc2C(F)(F)F)C3)CC1CC#N` (stereo partly drawn) [Example 281, 2-(1-acryloyl-4-(2-(((R)-1-methylpyrrolidin-3-yl)methoxy)-7-(2-(trifluoromethyl)phenyl)-5,6,7,8-tetrahydropyrido[3,4-d]pyrimidin-4-yl)piperazin-2-yl)acetonitrile], the POC entry on KRas G12C is on record as “C (“C”>50% POC)”. For the same molecule, in test [1] (Homo sapiens, NCI-H358, 3 h), the 50% inhibitory concentration (IC50) lay within 0.0001 to 1 µM.
On to `CC(C)=CC(=O)N1CCN(c2nc(OC[C@@H]3CCCN3C)nc3c2CCN(c2cccc4ccccc24)C3)CC1CC#N` (stereo partly drawn) [Example 282, 2-(1-(3-methylbut-2-enoyl)-4-(2-(((S)-1-methylpyrrolidin-2-yl)methoxy)-7-(naphthalen-1-yl)-5,6,7,8-tetrahydropyrido[3,4-d]pyrimidin-4-yl)piperazin-2-yl)acetonitrile], for which, on KRas G12C, the POC entry is “A (“A”≤25% POC)”. For the same molecule, the IC50 in test [1] (Homo sapiens, NCI-H358, 3 h) is above 1 µM.
As for `C=CC(=O)N1CCN(c2nc(OC[C@H]3CCCN3C)nc3c2CCN(c2ccccc2C(F)(F)F)C3)CC1CC#N` (stereo partly drawn) [Example 283, 2-(1-acryloyl-4-(2-(((R)-1-methylpyrrolidin-2-yl)methoxy)-7-(2-(trifluoromethyl)phenyl)-5,6,7,8-tetrahydropyrido[3,4-d]pyrimidin-4-yl)piperazin-2-yl)acetonitrile], the POC result at KRas G12C was “C (“C”>50% POC)”. Also, the 50% inhibitory concentration (IC50) in test [1] (Homo sapiens, NCI-H358, 3 h) fell in the range of 0.0001 to 1 µM.
Take `C=CC(=O)N1CCN(c2nc(OCCN(CC)CC)nc3c2CCN(c2ccccc2C(F)(F)F)C3)CC1CC#N` (stereo not shown) [Example 284, 2-(1-acryloyl-4-(2-(2-(diethylamino)ethoxy)-7-(2-(trifluoromethyl)phenyl)-5,6,7,8-tetrahydropyrido[3,4-d]pyrimidin-4-yl)piperazin-2-yl)acetonitrile]: the POC entry at KRas G12C is on record as “C (“C”>50% POC)”. In addition, the concentration for half-maximal inhibition (IC50) in test [1] (Homo sapiens, NCI-H358, 3 h) was 0.0001 to 1 µM.
For `C=CC(=O)N1CCN(c2nc(OC[C@@H]3CCCN3C(C)C)nc3c2CCN(c2cccc4ccccc24)C3)CC1CC#N` (stereo partly drawn) [Example 285, 2-[4-[2-[[(2S)-1-isopropylpyrrolidin-2-yl]methoxy]-7-(1-naphthyl)-6,8-dihydro-5H-pyrido[3,4-d]pyrimidin-4-yl]-1-prop-2-enoyl-piperazin-2-yl]acetonitrile], the POC result on KRas G12C was “C (“C”>50% POC)”. Further, in test [1] (Homo sapiens, NCI-H358, 3 h), the half-inhibitory concentration (IC50) was in the range of 0.0001 to 1 µM.

For the origin of these results see patent publication US10125134B2 (Mirati Therapeutics, Inc., priority 2016, dated 2018).
